Values after ≈ are worked out from the molar mass of the structure shown. Where two headings read alike, the source gives them in different places.
Assays:
[1] = tested on: cells; assay: LD50 for selectivity index (Table 10); assay type: cell-based, Mycobacterium tuberculosis
Description: Table 10 lists MIC and LD50 data for selected compounds. […] Table 11 lists MIC data for purified substituted ethylene diamines in comparison to ethambutol (EMB).

[2] = tested on: wild type of M.tb; assay: MIC, secondary screening, wild type; assay type: cell-based, Mycobacterium tuberculosis; details: Mycobacterium tuberculosis, WT
[3] = tested on: sigma receptor (sigma non-selective); assay: CEREP receptor binding, sigma; details: tested at 10 μM
Description: (§1) In vitro testing for safety pharmacology and early ADMET (Absorption, Distribution, Metabolism, Excretion, Toxicity) studies of compound 109 were contracted out to CEREP (15318 NE 95th Street, Redmond, Wash., 98052, USA www.cerep.com) under a service agreement and included evaluation of inhibitory binding to a panel of 27 standard receptors and three transporters (See FIG. 60 (Table 31) and FIG. 61 (Table 32)) which included: adenosine receptors (A1 and A2A), adrenergic receptors (alpha 1, alpha 2, beta 1), angiotensin II receptor (AT1), benzodiazapene receptor (BZD), bradykinin receptor (B2), cholecystokinin receptor (CCK1), dopamine receptors (D1, D2S), endothelin receptor (ETA), GABA receptor (GABA), glutamate receptor (NMDA), histamine receptor (H1 central), melanocortin receptor (MC4), muscarinic receptor (M, non-selective), neurokinin receptor (NK1), neuropeptide Y receptor (Y), nicotinic receptor (neuronal, alpha-BGTX-insensitive), opiate receptor (non-selective opiate), orphanin receptor (ORL1), phencyclidine receptor (PCP), serotonin receptor (5-HT), sigma receptor (sigma non-selective), steroid receptor (glucocorticoid receptor, GR), and NE, DA, and 5-HT transporters.
(§2) The specific ligand binding to the receptors is defined as the difference between the total binding and the nonspecific binding determined in the presence of an excess of unlabelled ligand.

[4] = target: T1, Serotonin 5-HT transporter (Homo sapiens, UniProt P31645); assay: CEREP transporter binding, 5-HT; details: tested at 10 μM; read-out: inhibition of control specific binding
T1 construct: CEREP (contract testing)
Description: as §1, §2

[5] = tested on: Aspergillus fumigatus; assay: Spectrum of activity MIC, broth microdilution NCCLS M38-A (mold); assay type: cell-based; details: three isolates
Experimental: Compound 109 was tested against a representative panel of commonly encountered clinical microorganisms comprising opportunistic pathogens, target pathogens and normal human flora. The spectrum of activity of compound 109 was evaluated by performing recommended broth microdilution methods. NCCLS M27-A2, 2003 for yeast and NCCLS M38-A, 2003 for mold.

[6] = tested on: M. chelonae group (M. chelonae and M. abscessus); assay: Spectrum of activity MIC, rapid-grower, broth microdilution (NCCLS M24-A); assay type: cell-based; details: Mycobacteroides chelonae; three strains tested
[7] = tested on: RIF^R M. tuberculosis isolate 2482; assay: microbe, parasite or virus in culture; assay type: cell-based; details: Mycobacterium tuberculosis, read-out: MIC (BACTEC)
[8] = tested on: RIF^R M. tuberculosis strain 2482; assay type: cell-based
[9] = tested on: M. tuberculosis H37Rv (Pasteur); assay: Rapid in vivo model of TB, body weight of infected mice; parameters: species or system C3H female mice
[10] = target: human CYP2C19 (Homo sapiens, UniProt P33261); assay: Metabolism by CYP2C19; assay type: in vitro ADME
Description: Two of the groups contained oxidized metabolites. […] Based on the finding that SQ109 was metabolized rapidly by CYP, it is possible that its antimycobacterial activity may come from one of its metabolites. It is conceivable that SQ109 is a prodrug and requires activation by mycobacterial CYP. We speculate that when SQ109 is used in combination with rifampicin, the latter induces certain CYP activity within the Mycobacteria. Elevated CYP activity activates the SQ109 prodrug more efficiently, resulting in an apparent synergistic activity of the two drugs.

[11] = tested on: M. smegmatis; assay: Spectrum (unpublished data); assay type: cell-based
[12] = tested on: M. avium; assay: Spectrum (unpublished data); assay type: cell-based

T1 sequence (P31645 whole entry): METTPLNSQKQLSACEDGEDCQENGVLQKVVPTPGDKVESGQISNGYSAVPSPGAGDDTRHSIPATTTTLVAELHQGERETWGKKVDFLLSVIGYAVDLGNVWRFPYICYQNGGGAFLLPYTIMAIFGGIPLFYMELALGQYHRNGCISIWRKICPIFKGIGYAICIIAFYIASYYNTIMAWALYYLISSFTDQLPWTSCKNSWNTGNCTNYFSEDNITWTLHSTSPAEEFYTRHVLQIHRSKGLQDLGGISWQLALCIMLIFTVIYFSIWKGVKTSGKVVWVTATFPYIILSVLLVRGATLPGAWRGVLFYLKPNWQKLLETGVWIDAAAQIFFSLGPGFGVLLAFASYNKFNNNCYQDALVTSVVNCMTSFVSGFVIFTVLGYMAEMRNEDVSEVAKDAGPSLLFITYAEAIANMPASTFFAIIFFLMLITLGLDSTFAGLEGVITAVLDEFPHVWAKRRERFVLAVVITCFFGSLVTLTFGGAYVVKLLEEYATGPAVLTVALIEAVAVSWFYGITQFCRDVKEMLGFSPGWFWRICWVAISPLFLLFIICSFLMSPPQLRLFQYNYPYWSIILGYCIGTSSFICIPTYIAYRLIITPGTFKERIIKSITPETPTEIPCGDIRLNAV
Chain of human CYP2C19 (P33261 whole entry): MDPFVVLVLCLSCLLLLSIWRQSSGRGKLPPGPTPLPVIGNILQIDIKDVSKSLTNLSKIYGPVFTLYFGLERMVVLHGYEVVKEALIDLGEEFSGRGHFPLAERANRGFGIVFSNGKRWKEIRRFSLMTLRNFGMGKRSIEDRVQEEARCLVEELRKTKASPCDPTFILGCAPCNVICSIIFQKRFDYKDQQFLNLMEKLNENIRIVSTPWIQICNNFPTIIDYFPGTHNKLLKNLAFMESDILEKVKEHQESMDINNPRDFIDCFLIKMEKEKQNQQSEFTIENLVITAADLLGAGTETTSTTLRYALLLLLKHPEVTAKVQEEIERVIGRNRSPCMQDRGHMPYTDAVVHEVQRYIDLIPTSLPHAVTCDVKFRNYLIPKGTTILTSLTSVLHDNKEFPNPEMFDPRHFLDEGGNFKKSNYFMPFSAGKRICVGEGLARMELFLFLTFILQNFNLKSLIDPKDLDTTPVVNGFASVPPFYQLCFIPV

CC(C)=CCC/C(C)=C/CNCCNC1C2CC3CC(C2)CC1C3 (stereo not drawn) [Compound 109, N-Geranyl-N′-(2-adamanthyl)ethane-1,2-diamine]
SI (Selectivity Index) ([1]; LD50 : MIC): 16.39
LD50 ([1]; concentration at which 50% of the cells are killed): 32 µM
LD50 ([1]; from uM and MW): 14.4 µg/mL
MIC ([2]; value in brackets, read-out: MIC (or uM)): 0.18 µM
MIC ([2]; EMB, RL241, Cmpd#59 as 2HCl salt, Cmpd#109 as 2CF3COOH salt, read-out: MIC): 0.1 µg/mL
inhibition of control specific binding [3]: 106%
inhibition at 10 µM [4]: 95%
MIC [5]: 16 µg/mL (≈ 48.4 µM)
MIC [6]: 16 µg/mL (≈ 48.4 µM)
MIC [7]: 0.32 µg/mL (≈ 0.968 µM)
x/y quotient ([8]; 0.25 MIC SQ109 (0.08 mg/L) + 10 mg/L rifampicin): 0.66
x/y quotient ([8]; 0.5 MIC SQ109 + rifampicin 25 mg/L): 0.497
x/y quotient ([8]; 0.5 MIC SQ109 + rifampicin 50 mg/L): 0.39
x/y quotient ([8]; 0.5 MIC SQ109 + rifampicin 100 mg/L): 0.33
growth inhibition ([8]; 0.5 MIC SQ109 added to 100 mg/L rifampicin): more than 99%
average body weight ([9]; SQ109 10 mg/kg + RIF 2 mg/kg orally, 6 mice, by the 3 wk, uninfected control 24.5 g, untreated 17 g): 24.3 grams
body weight of infected mice ([9]; SQ109 in combination with PZA (50 mg/kg)): slight improvement
body weight of infected mice ([9]; compound 109 (10 mg/kg) in combination with Rifampicin (2 mg/kg)): comparable to non-infected controls
body weight of infected mice ([9]; compound 109 (10 mg/kg) in combination with Rifampicin (2 mg/kg), listed as SQ109): fully prevented body weight loss
body weight of infected mice ([9]; compound 109 in combination with EMB (10 mg/kg)): closer to placebo treated controls
body weight of infected mice ([9]; compound 109 in combination with EMB (10 mg/kg), listed as SQ109): No effect
body weight of infected mice ([9]; compound 109 in combination with INH (1 mg/kg)): comparable to non-infected controls
body weight of infected mice ([9]; compound 109 in combination with INH (1 mg/kg), listed as SQ109): enhanced activity
body weight of infected mice ([9]; compound 109 in combination with Moxi (10 mg/kg)): closer to placebo treated controls
body weight of infected mice ([9]; compound 109 in combination with Moxi (10 mg/kg), listed as SQ109): antagonistic effect
average weight ([9]; single drug alone (SQ109 10 mg/kg; RIF 2 mg/kg), by the 3 wk): 21.3 g
body weight of infected mice ([9]; single drug alone (SQ109 10 mg/kg; Rifampin 2 mg/kg)): closer to placebo treated controls
metabolism by CYP [10]: metabolized
activity [11]: much less active
activity [12]: much less active
